{"source": "patent US20160355530A1", "about": "“HEPATITIS C INHIBITORS AND USES THEREOF” (AbbVie Inc., priority 2010, published 2016)", "key": {"[1]": {"molecular_target": "T1, HCV NS5B polymerase 1a-H77 (Hepatitis C virus genotype 1a, UniProt P27958)", "T1 construct": "six-histidine tag; made in house; host or cells: E. coli", "T1 sequence (P27958 2421-2990)": "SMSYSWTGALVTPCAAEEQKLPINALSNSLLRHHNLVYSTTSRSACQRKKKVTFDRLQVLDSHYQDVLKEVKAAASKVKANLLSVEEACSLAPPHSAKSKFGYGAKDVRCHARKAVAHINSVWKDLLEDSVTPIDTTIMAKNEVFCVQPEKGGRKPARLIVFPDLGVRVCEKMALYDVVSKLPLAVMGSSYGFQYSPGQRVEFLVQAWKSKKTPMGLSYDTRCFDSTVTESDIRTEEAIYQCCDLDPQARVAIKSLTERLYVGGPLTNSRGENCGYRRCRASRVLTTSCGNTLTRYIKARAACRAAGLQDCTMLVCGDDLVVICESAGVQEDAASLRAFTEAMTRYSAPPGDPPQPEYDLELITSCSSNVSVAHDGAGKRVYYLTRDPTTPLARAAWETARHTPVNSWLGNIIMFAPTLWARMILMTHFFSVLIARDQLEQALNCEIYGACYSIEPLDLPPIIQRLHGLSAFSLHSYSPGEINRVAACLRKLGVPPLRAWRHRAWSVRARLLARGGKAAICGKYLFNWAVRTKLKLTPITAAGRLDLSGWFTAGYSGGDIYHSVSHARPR", "test": "biochemical", "design": "species or system HCV genotype 1a", "settings": "enzyme, strain 1a H77; read-out: HCV Polymerase Strain 1a H77 IC50", "in_short": "(§1)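 E. coli-expressed NS5B (residues 1-570, His-tagged) transcribed a 2.1 kb HCV 1b negative-strand 3′-end RNA template (5 nM) with 20 μM CTP, 20 μM ATP and 0.284 μM [3H]UTP for 3 h at 30° C. Spermine-precipitated RNA was filter-captured and counted by scintillation; IC50 from nonlinear regression.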"}, "[2]": {"molecular_target": "T2, HCV NS5B polymerase 1a-H77-C316Y (Hepatitis C virus genotype 1a, UniProt P27958, C2736Y)", "T2 construct": "six-histidine tag; made in house; host or cells: E. coli", "T2 sequence (P27958 2421-2990 C2736Y)": "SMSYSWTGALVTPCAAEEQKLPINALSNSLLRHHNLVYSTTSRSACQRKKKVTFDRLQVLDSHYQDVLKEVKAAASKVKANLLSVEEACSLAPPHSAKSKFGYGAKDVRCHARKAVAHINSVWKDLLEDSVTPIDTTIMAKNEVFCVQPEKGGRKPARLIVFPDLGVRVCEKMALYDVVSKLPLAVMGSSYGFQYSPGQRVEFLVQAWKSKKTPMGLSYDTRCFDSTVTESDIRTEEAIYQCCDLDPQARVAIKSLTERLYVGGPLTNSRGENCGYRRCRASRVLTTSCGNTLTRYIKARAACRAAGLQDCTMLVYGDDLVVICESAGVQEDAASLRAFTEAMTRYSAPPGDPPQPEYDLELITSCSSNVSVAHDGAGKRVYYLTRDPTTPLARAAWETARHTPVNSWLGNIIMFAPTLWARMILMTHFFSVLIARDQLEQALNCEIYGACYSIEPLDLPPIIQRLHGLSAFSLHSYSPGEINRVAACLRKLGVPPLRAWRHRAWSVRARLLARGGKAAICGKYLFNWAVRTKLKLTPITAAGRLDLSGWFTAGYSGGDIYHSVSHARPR", "test": "biochemical", "design": "species or system HCV genotype 1a", "in_short": "as §1"}, "[3]": {"test_system": "HCV NS5B polymerase 1a-H77-C316Y", "test": "biochemical", "design": "species or system HCV genotype 1a", "settings": "ratio of enzyme IC50s, 1a H77-C316Y / 1a H77", "in_short": "as §1"}, "[4]": {"molecular_target": "T3, HCV NS5B polymerase 1b BK strain (Hepatitis C virus genotype 1b, UniProt P26663)", "T3 construct": "six-histidine tag; made in house; host or cells: E. coli", "T3 sequence (P26663 2420-2989)": "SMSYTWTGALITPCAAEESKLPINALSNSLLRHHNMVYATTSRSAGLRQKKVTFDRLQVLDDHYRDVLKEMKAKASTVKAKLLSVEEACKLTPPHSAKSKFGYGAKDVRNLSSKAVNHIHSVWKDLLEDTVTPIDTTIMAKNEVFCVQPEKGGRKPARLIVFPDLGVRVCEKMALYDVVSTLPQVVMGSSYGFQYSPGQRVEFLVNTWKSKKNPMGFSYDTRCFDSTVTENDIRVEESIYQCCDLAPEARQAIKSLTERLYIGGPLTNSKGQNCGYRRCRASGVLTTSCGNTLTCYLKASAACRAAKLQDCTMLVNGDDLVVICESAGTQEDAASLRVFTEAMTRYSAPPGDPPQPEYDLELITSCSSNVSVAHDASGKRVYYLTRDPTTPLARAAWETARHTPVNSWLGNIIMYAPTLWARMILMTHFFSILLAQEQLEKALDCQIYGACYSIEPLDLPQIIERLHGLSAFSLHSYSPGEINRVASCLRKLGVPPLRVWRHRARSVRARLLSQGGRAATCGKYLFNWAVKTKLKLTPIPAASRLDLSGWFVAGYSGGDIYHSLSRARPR", "test": "HCV NS5B polymerase enzymatic inhibition assay, strain 1b BK", "type": "biochemical", "settings": "enzyme, strain 1b BK; read-out: HCV Polymerase Strain 1b BK IC50", "in_short": "as §1"}, "[5]": {"test_system": "HCV 1a-H77 subgenomic replicon", "test": "microbe, parasite or virus in culture", "type": "cell-based, HCV genotype 1a", "settings": "Hepatitis C virus, stable replicon"}, "[6]": {"test_system": "HCV 1b-BB7 subgenomic replicon", "test": "microbe, parasite or virus in culture", "type": "cell-based, HCV genotype 1b", "settings": "Hepatitis C virus, stable replicon"}, "[7]": {"test_system": "chimeric replicon with 2a-J6CF-derived NS5B", "test": "microbe, parasite or virus in culture", "type": "cell-based, HCV genotype 2a", "settings": "Hepatitis C virus, read-out: 2a chimera 5% FBS EC50"}, "[8]": {"test_system": "chimeric replicon with genotype 2b NS5B", "test": "microbe, parasite or virus in culture", "type": "cell-based, HCV genotype 2b", "settings": "Hepatitis C virus, read-out: 2b chimera 5% FBS EC50"}, "[9]": {"test_system": "chimeric replicon with genotype 3a NS5B", "test": "microbe, parasite or virus in culture", "type": "cell-based, HCV genotype 3a", "settings": "Hepatitis C virus, read-out: 3a chimera 5% FBS EC50"}, "[10]": {"test_system": "chimeric replicon with genotype 4a NS5B", "test": "microbe, parasite or virus in culture", "type": "cell-based, HCV genotype 4a", "settings": "Hepatitis C virus, read-out: 4a chimera 5% FBS EC50"}, "[11]": {"settings": "5% FBS, absence of human plasma, read-out: Stable Replicon 1a H77 5% FBS EC50"}, "[12]": {"settings": "strain 1a H77, 5% FBS + 40% human plasma, read-out: 1a H77 5% FBS + 40% Human Plasma EC50"}, "[13]": {"settings": "strain 1a H77, 5% FBS, no human plasma, read-out: 1a H77 5% FBS EC50"}, "[14]": {"settings": "strain 1a H77, 5% FBS, read-out: 1a H77 5% FBS EC50"}, "[15]": {"settings": "strain 1b BB7, 5% FBS + 40% human plasma, read-out: 1b BB7 5% FBS + 40% Human Plasma EC50"}, "[16]": {"settings": "strain 1b BB7, 5% FBS, no human plasma, read-out: 1b BB7 5% FBS EC50"}, "[17]": {"settings": "strain 1b BB7, 5% FBS, read-out: 1b BB7 5% FBS EC50"}}, "note": "pEC50, pIC50: −log10 of the molar value. Where two headings read alike, the source gives them in different places.", "data": [{"compound": "CCS(=O)(=O)CCN(c1cc2oc(-c3ccc(F)cc3)c(C3=NOCCN3)c2cc1C1CC1)S(C)(=O)=O", "note": "[Example 142, N-[5-cyclopropyl-3-(5,6-dihydro-4H-1,2,4-oxadiazin-3-yl)-2-(4-fluorophenyl)-1-benzofuran-6-yl]-N-[2-(ethylsulfonyl)ethyl]methanesulfonamide]", "values": [{"measurement": "pIC50", "setting": "[1]", "value": 8.15}, {"measurement": "pIC50", "setting": "[2]", "value": 7.23}, {"measurement": "C316Y/1a Fold Resistance", "setting": "[3]", "value": 8, "unit": "fold"}, {"measurement": "pIC50", "setting": "[4]", "value": 7.38}, {"measurement": "pEC50", "setting": "[5]; [11]", "value": 7.94}, {"measurement": "pEC50", "setting": "[5]; [12]", "value": 7.39}, {"measurement": "pEC50", "setting": "[5]; [13]", "value": 7.94}, {"measurement": "pEC50", "setting": "[5]; [14]", "value": 7.94}, {"measurement": "pEC50", "setting": "[6]; [15]", "value": 6.96}, {"measurement": "pEC50", "setting": "[6]; [16]", "value": 7.96}, {"measurement": "pEC50", "setting": "[6]; [17]", "value": 7.96}, {"measurement": "pEC50", "setting": "[7]", "value": 6.71}, {"measurement": "pEC50", "setting": "[8]", "value": 6.43}, {"measurement": "pEC50", "setting": "[9]", "value": 7.68}, {"measurement": "pEC50", "setting": "[10]", "value": 6.79}]}, {"compound": "CS(=O)(=O)N(CCCc1nnn[nH]1)c1cc2oc(-c3ccc(F)cc3)c(C3=NOCCN3)c2cc1C1CC1", "note": "[Example 180, N-[5-cyclopropyl-3-(5,6-dihydro-4H-1,2,4-oxadiazin-3-yl)-2-(4-fluorophenyl)-1-benzofuran-6-yl]-N-[3-(1H-tetrazol-5-yl)propyl]methanesulfonamide]", "values": [{"measurement": "pIC50", "setting": "[1]", "value": 8.22}, {"measurement": "pIC50", "setting": "[2]", "value": 7.47}, {"measurement": "C316Y/1a Fold Resistance", "setting": "[3]", "value": 6, "unit": "fold"}, {"measurement": "pIC50", "setting": "[4]", "value": 7.49}, {"measurement": "pEC50", "setting": "[5]; [11]", "value": 6.00}, {"measurement": "pEC50", "setting": "[5]; [12]", "value": 5.00}, {"measurement": "pEC50", "setting": "[5]; [13]", "value": 6.00}, {"measurement": "pEC50", "setting": "[5]; [14]", "value": 6.00}, {"measurement": "pEC50", "setting": "[6]; [15]", "value": 5.00}, {"measurement": "pEC50", "setting": "[6]; [16]", "value": 6.00}, {"measurement": "pEC50", "setting": "[6]; [17]", "value": 6.00}, {"measurement": "pEC50", "setting": "[7]", "value": 6.00}, {"measurement": "pEC50", "setting": "[8]", "value": 6.00}, {"measurement": "pEC50", "setting": "[9]", "value": 6.00}, {"measurement": "pEC50", "setting": "[10]", "value": "< 6.00"}]}, {"compound": "CS(=O)(=O)N(CCC1CCOCC1)c1cc2oc(-c3ccc(F)cc3)c(-c3ncc[nH]3)c2cc1C1CC1", "note": "[Example 48, N-[5-cyclopropyl-2-(4-fluorophenyl)-3-(1H-imidazol-2-yl)-1-benzofuran-6-yl]-N-[2-(tetrahydro-2H-pyran-4-yl)ethyl]methanesulfonamide]", "values": [{"measurement": "pIC50", "setting": "[1]", "value": 8.11}, {"measurement": "pIC50", "setting": "[2]", "value": 7.13}, {"measurement": "C316Y/1a Fold Resistance", "setting": "[3]", "value": 10, "unit": "fold"}, {"measurement": "pIC50", "setting": "[4]", "value": 7.64}, {"measurement": "pEC50", "setting": "[5]; [11]", "value": 7.94}, {"measurement": "pEC50", "setting": "[5]; [12]", "value": 6.83}, {"measurement": "pEC50", "setting": "[5]; [13]", "value": 7.94}, {"measurement": "pEC50", "setting": "[5]; [14]", "value": 7.94}, {"measurement": "pEC50", "setting": "[6]; [15]", "value": 7.12}, {"measurement": "pEC50", "setting": "[6]; [16]", "value": 8.08}, {"measurement": "pEC50", "setting": "[6]; [17]", "value": 8.07}, {"measurement": "pEC50", "setting": "[7]", "value": 7.08}, {"measurement": "pEC50", "setting": "[8]", "value": 7.16}, {"measurement": "pEC50", "setting": "[9]", "value": 8.00}, {"measurement": "pEC50", "setting": "[10]", "value": 7.33}]}, {"compound": "[2H]C1([2H])NC(c2c(-c3ccc(F)cc3)oc3cc(N(CCCCS(C)(=O)=O)S(C)(=O)=O)c(C4CC4)cc23)=NO1", "note": "[Example 150, N-{5-cyclopropyl-3-[(5,5-^2H2)-4,5-dihydro-1,2,4-oxadiazol-3-yl]-2-(4-fluorophenyl)-1-benzofuran-6-yl}-N-[4-(methylsulfonyl)butyl]methanesulfonamide]", "values": [{"measurement": "pIC50", "setting": "[1]", "value": 8.40}, {"measurement": "pIC50", "setting": "[2]", "value": 7.38}, {"measurement": "C316Y/1a Fold Resistance", "setting": "[3]", "value": 11, "unit": "fold"}, {"measurement": "pIC50", "setting": "[4]", "value": 8.30}, {"measurement": "pEC50", "setting": "[5]; [11]", "value": 8.30}, {"measurement": "pEC50", "setting": "[5]; [12]", "value": 6.49}, {"measurement": "pEC50", "setting": "[5]; [13]", "value": 8.30}, {"measurement": "pEC50", "setting": "[5]; [14]", "value": 8.30}, {"measurement": "pEC50", "setting": "[6]; [15]", "value": 6.64}, {"measurement": "pEC50", "setting": "[6]; [16]", "value": 8.40}, {"measurement": "pEC50", "setting": "[6]; [17]", "value": 8.40}, {"measurement": "pEC50", "setting": "[7]", "value": 7.37}, {"measurement": "pEC50", "setting": "[8]", "value": 7.51}, {"measurement": "pEC50", "setting": "[9]", "value": 8.15}, {"measurement": "pEC50", "setting": "[10]", "value": 7.60}]}, {"compound": "CS(=O)(=O)N(CCCC(F)(F)F)c1cc2oc(-c3ccc(F)cc3)c(C3=NOCCN3)c2cc1C1CC1", "note": "[Example 117, N-[5-cyclopropyl-3-(5,6-dihydro-4H-1,2,4-oxadiazin-3-yl)-2-(4-fluorophenyl)-1-benzofuran-6-yl]-N-(4,4,4-trifluorobutyl)methanesulfonamide]", "values": [{"measurement": "pIC50", "setting": "[1]", "value": 8.35}, {"measurement": "pIC50", "setting": "[2]", "value": 7.44}, {"measurement": "C316Y/1a Fold Resistance", "setting": "[3]", "value": 8, "unit": "fold"}, {"measurement": "pIC50", "setting": "[4]", "value": 7.51}, {"measurement": "pEC50", "setting": "[5]; [11]", "value": 7.66}, {"measurement": "pEC50", "setting": "[5]; [12]", "value": 6.80}, {"measurement": "pEC50", "setting": "[5]; [13]", "value": 7.66}, {"measurement": "pEC50", "setting": "[5]; [14]", "value": 7.66}, {"measurement": "pEC50", "setting": "[6]; [15]", "value": 6.61}, {"measurement": "pEC50", "setting": "[6]; [16]", "value": 7.52}, {"measurement": "pEC50", "setting": "[6]; [17]", "value": 7.52}, {"measurement": "pEC50", "setting": "[7]", "value": 6.67}, {"measurement": "pEC50", "setting": "[8]", "value": 6.62}, {"measurement": "pEC50", "setting": "[9]", "value": 7.51}, {"measurement": "pEC50", "setting": "[10]", "value": 6.63}]}, {"compound": "CS(=O)(=O)N(CCCc1nnn[nH]1)c1cc2oc(-c3ccc(F)cc3)c(-c3ncc[nH]3)c2cc1C1CC1", "note": "[Example 174, N-[5-cyclopropyl-2-(4-fluorophenyl)-3-(1H-imidazol-2-yl)-1-benzofuran-6-yl]-N-[3-(1H-tetrazol-5-yl)propyl]methanesulfonamide]", "values": [{"measurement": "pIC50", "setting": "[1]", "value": 8.46}, {"measurement": "pIC50", "setting": "[2]", "value": 7.40}, {"measurement": "C316Y/1a Fold Resistance", "setting": "[3]", "value": 12, "unit": "fold"}, {"measurement": "pIC50", "setting": "[4]", "value": 7.73}, {"measurement": "pEC50", "setting": "[5]; [11]", "value": 6.49}, {"measurement": "pEC50", "setting": "[5]; [12]", "value": 5.32}, {"measurement": "pEC50", "setting": "[5]; [13]", "value": 6.49}, {"measurement": "pEC50", "setting": "[5]; [14]", "value": 6.49}, {"measurement": "pEC50", "setting": "[6]; [15]", "value": 5.43}, {"measurement": "pEC50", "setting": "[6]; [16]", "value": 6.72}, {"measurement": "pEC50", "setting": "[6]; [17]", "value": 6.72}, {"measurement": "pEC50", "setting": "[7]", "value": 6.00}, {"measurement": "pEC50", "setting": "[8]", "value": 6.00}, {"measurement": "pEC50", "setting": "[9]", "value": 6.54}, {"measurement": "pEC50", "setting": "[10]", "value": "< 6.00"}]}]}
